Measurements from the NIST ThermoML archive (doi:10.1016/j.jct.2012.05.023).

How the values were obtained:
[1] = xn = mol fraction of the nth substance listed; conditions: 101.3 kPa, Liquid; for mass density: Vibrating tube method; for speed of sound: Sing-around technique in a fixed-path interferometer
[2] = refractive index (Na D-line) (dimensionless); xn = mol fraction of the nth substance listed; conditions: 101.3 kPa, Liquid, Standard Abbe refractometry

c1ccc2c(c1)CCCC2 [1,2,3,4-tetrahydronaphthalene] + CCCCCCCCCCCC
Conditions	mass density, 333.15 K [kg/m3]	mass density, 343.15 K [kg/m3]	refractive index, 293.15 K	refractive index, 303.15 K	refractive index, 313.15 K	refractive index, 323.15 K	refractive index, 333.15 K	refractive index, 343.15 K	speed of sound, 343.15 K [m/s]
[1], x1 = 0.1021	733.68	726.25	–	–	–	–	–	–	1122.2
[1], x1 = 0.2015	748.42	740.94	–	–	–	–	–	–	1132.6
[1], x1 = 0.307	765.58	758.06	–	–	–	–	–	–	1146.8
[1], x1 = 0.3998	782.08	774.5	–	–	–	–	–	–	1159.3
[1], x1 = 0.4985	801.28	793.67	–	–	–	–	–	–	1175.4
[1], x1 = 0.5961	822.25	814.59	–	–	–	–	–	–	1192.4
[1], x1 = 0.7019	847.55	839.81	–	–	–	–	–	–	1214.6
[1], x1 = 0.8012	874.21	866.35	–	–	–	–	–	–	1238.2
[1], x1 = 0.8998	903.72	895.83	–	–	–	–	–	–	1266.4
[1], x1 = 1	937.77	929.8	–	–	–	–	–	–	1299.8
[2], x1 = 0.1021	–	–	1.42964	1.42538	1.42102	1.4166	1.41223	1.4078	–
[2], x1 = 0.2015	–	–	1.43768	1.43335	1.42887	1.42456	1.42011	1.41563	–
[2], x1 = 0.307	–	–	1.44691	1.44249	1.43817	1.43374	1.42925	1.42483	–
[2], x1 = 0.3998	–	–	1.45578	1.45151	1.44709	1.44258	1.43819	1.43363	–
[2], x1 = 0.4985	–	–	1.46621	1.46183	1.45748	1.45304	1.44856	1.44396	–
[2], x1 = 0.5961	–	–	1.47773	1.47333	1.46884	1.46437	1.45998	1.45528	–
[2], x1 = 0.7019	–	–	1.49155	1.48719	1.48267	1.47817	1.47364	1.46911	–
[2], x1 = 0.8012	–	–	1.5062	1.50172	1.49723	1.49269	1.48822	1.48355	–
[2], x1 = 0.8998	–	–	1.52267	1.51815	1.51359	1.50898	1.5043	1.49932	–
[2], x1 = 1	–	–	1.54155	1.53687	1.53216	1.52752	1.52274	1.51795	–
